Key:
LRRK2 [1] = assay: Overexpressed LRRK2 levels in HEK 293T cells, Western blot; assay type: cell-based, human
Protocol: FIGS. 2A-2T depicts that AICAr, the precursor of ATIC substrate, regulates LRRK2 expression levels and neuronal toxicity. FIGS. 2A and 2B depict the overexpressed LRRK2 levels in HEK 293T cells upon AICAr treatment. HEK293 cells were transfected with MYC-LRRK2 and treated with or without 1 mM AICAr for 48 hours. LRRK2 levels were analyzed by Western blot. FIGS. 2C and 2D depict the LRRK2 expression levels in SH-SY5Y cells upon AICAr treatment. Human neuroblastoma SH-SY5Y cells were treated with or without 1 mM AICAr for 48 hours. LRRK2 expression levels were analyzed by Western blot. FIGS. 2E and 2F depict the overexpressed (3-glucocerebrosidase (GCase) levels upon AICAr treatment. HEK 293T cells were transfected with V5-GCase and treated with or without 1 mM AICAr for 48 hours. GCase levels were analyzed by Western blot. FIGS. 2G-2N depict the LRRK2 expression levels in primary neurons (FIG. 2G and FIG. 2H), microglia (FIG. 2I and FIG. 2J), astrocytes (FIG. 2K and FIG. 2L) and human fibroblasts (FIG. 2M and FIG. 2N) upon AICAr treatment. Mouse primary cortical neurons, microglia, astrocytes or human fibroblasts from a health control were treated with or without 1 mM AICAr for 48 hours. LRRK2 expression levels were analyzed by Western blot. FIGS. 2O and 2P depict the overexpressed LRRK2 WT and pathogenic mutant levels upon AICAr treatment. HEK 293T cells were transfected with MYC-LRRK2 WT, R1441C (RC), R1441G (RG), Y1699C (YC), G2019S (GS) or I2020T (IT) and treated with or without 1 mM AICAr for 48 hours. LRRK2 expression levels were analyzed by Western blot. FIGS. 2Q and 2R depict the LRRK2 expression levels in mouse striatum upon AICAr treatment. AICAr (72 μg/day/animal) or saline (used as a control) was injected into mouse striatum via osmotic pumps. One day after injection, striatal tissues near the injection sites were collected and LRRK2 expression levels were analyzed by Western blot. Images were quantified by ImageJ software. Data are mean±SEM from total six mice (three male mice and three female mice). ****p<0.0001 by Student's t tests. […] FIG. 2T depicts the quantification of neuronal viability. Bars indicate the viability (n>100) for each transfection condition expressed as a percent of control neurons (eGFP with pcDNA3.1 empty vector). Data represent the mean±SEM from three independent experiments with n>100 cells quantified in each experiment. *p<0.05, ***p<0.001, ****p<0.0001 by one-way ANOVA followed by a Tukey's post hoc test.
FIGS. 3A-3J depict that AICAr regulates LRRK2 at mRNA level and through a specific region. […] LRRK2 expression levels were analyzed by Western blot. Images were quantified by ImageJ software. […] LRRK2 and GBA mRNA levels were analyzed by real-time PCR. […] LRRK2 mRNA levels were analyzed by real-time PCR. […]

LRRK2 [2] = assay: LRRK2 levels in human fibroblasts, Western blot; assay type: cell-based; conditions: 1 mM, 48 hours
Protocol: FIGS. 2A-2T depicts that AICAr, the precursor of ATIC substrate, regulates LRRK2 expression levels and neuronal toxicity. FIGS. 2A and 2B depict the overexpressed LRRK2 levels in HEK 293T cells upon AICAr treatment. HEK293 cells were transfected with MYC-LRRK2 and treated with or without 1 mM AICAr for 48 hours. LRRK2 levels were analyzed by Western blot. FIGS. 2C and 2D depict the LRRK2 expression levels in SH-SY5Y cells upon AICAr treatment. Human neuroblastoma SH-SY5Y cells were treated with or without 1 mM AICAr for 48 hours. LRRK2 expression levels were analyzed by Western blot. FIGS. 2E and 2F depict the overexpressed (3-glucocerebrosidase (GCase) levels upon AICAr treatment. HEK 293T cells were transfected with V5-GCase and treated with or without 1 mM AICAr for 48 hours. GCase levels were analyzed by Western blot. FIGS. 2G-2N depict the LRRK2 expression levels in primary neurons (FIG. 2G and FIG. 2H), microglia (FIG. 2I and FIG. 2J), astrocytes (FIG. 2K and FIG. 2L) and human fibroblasts (FIG. 2M and FIG. 2N) upon AICAr treatment. Mouse primary cortical neurons, microglia, astrocytes or human fibroblasts from a health control were treated with or without 1 mM AICAr for 48 hours. LRRK2 expression levels were analyzed by Western blot. […] LRRK2 expression levels were analyzed by Western blot. […] Images were quantified by ImageJ software. […]

LRRK2 [3] = assay: LRRK2 levels in mouse striatal tissue after intracranial AICAr via osmotic pumps, Western blot; assay type: in vivo
Protocol: Saline injections were performed as controls.
Stereotaxic intracranial injection. Three days before survival surgery, osmotic pumps (ALZET, 1004) were filled with saline, 1 mg/ml or 30 mg/ml AICAr in saline, assembled with brain infusion kits (ALZET, Brain Infusion Kit 2), and incubated in saline at 37° C. 3-month-old mice were anesthetized by isoflurane gas supplemented with 0.5 L/min oxygen. A ˜1.5 cm incision was made midline on the scalp. For mouse striatum injection, one hole was drilled at the following coordinates: anterioposterior=+0.5 mm from bregma; lateral=−2.0 mm from bregma; dorsoventral=−3.5 mm. For mouse substantia nigra pars compacta (SNpc) injection, one hole was drilled at the following coordinates: anterioposterior=−3.2 mm from bregma; lateral=−1.2 mm from bregma; dorsoventral=−4.2 mm. 1 ul LPS (5 ug) or PBS was injected at a rate of 0.2 ul/min using a Hamilton syringe with a 26-gauge blunt needle. After injection, the needle was in place for 5 minutes to minimize backflow. A subcutaneous pocket was made on the animal's back to hold the osmotic pump. The 28-gauge needle from infusion cannulae connected to the osmotic pump with a vinyl catheter tube was inserted into the same hole and then the cannulae was secured to the skull with Loctite 454 (ALZET). The wound was closed with monofilament suture. […]

Question: Which results are given for `NC(=O)c1ncn([C@@H]2O[C@H](CO)[C@@H](O)[C@H]2O)c1N` [AICAr, 5-aminoimidazole-4-carboxamide riboside]?
Answer: native LRRK2 cDNA expression (LRRK2 [1]; HEK 293T, Flag-LRRK2 native cDNA, 1 mM, 48 hours): great suppress; expression of synthesized LRRK2 cDNA with synonymous codons (LRRK2 [1]; HEK 293T, Flag-LRRK2 synthesized cDNA, 1 mM, 48 hours): no obvious effects; overexpressed LRRK2 levels (LRRK2 [1]; HEK293 cells transfected with MYC-LRRK2, 1 mM, 48 hours): decreased; chimeric LRRK2 cDNA expression (LRRK2 [1]; synthesized cDNA with region 2221-3927 bp replaced by native sequence): great suppression; LRRK2 levels in fibroblasts (LRRK2 [2]): significantly decrease; LRRK2 levels in striatal tissues (LRRK2 [3]; WT mice, LPS model, AICAr 2.4 μg/day/animal into striatum, 21 days, Western blot): significant decrease; LRRK2 levels in striatal tissue near the injection sites (LRRK2 [3]; male and female mice, striatum, osmotic minipumps, 72 ug/animal/day, 1 day after injection): dramatically decreased

Source: US20240075050A1, “Methods and Compositions for Treating Leucine Rich Repeat Kinase 2 (LRRK2)-Associated Disorder or Condition” (University of Connecticut, priority 2022, published 2024)
